This is an account of results in patent US8686147B2, “Compound with serotoninergic activity, process for preparing it and pharmaceutical composition comprising it” (Aziende Chimiche Riunite Angelini Francesco A.C.R.A.F. …, priority 2009, dated 2014).

The target in one data set is T1, 5-HT4 serotonin receptor (Cavia porcellus, UniProt O70528).
T1 construct: The starting materials used were an homogenate of guinea pig striatum; from tissue; host or cells: guinea pig striatum homogenate
In words: Binding to the 5-HT4 serotonin receptor (radioligand binding, homogenate of guinea pig striatum). The settings on record: six concentrations, read-out: 5-HT4 (pKi) (converted). Here is the method:
Confirmation of the binding to the serotoninergic receptors was performed by means of a biochemical test on purified membranes from recombinant human cells that stably express the specific receptors or from selected animal tissues as described in particular in Grossman C.
(§1) Confirmation of the binding to the serotoninergic receptors was made using purified membranes from selected animal tissues or from recombinant human cells that stably express the specific receptors.
Binding to the 5-HT4 serotonin receptor was performed using standard methods described in: Grossman C. […] The test compounds were tested at six concentrations to obtain the pKi values of the individual compounds.

For data set [1], the target named is T2, human 5-HT2A serotonin receptor (Homo sapiens, UniProt P28223).
T2 construct: expressed in transfected cells
T2 sequence (P28223 whole entry): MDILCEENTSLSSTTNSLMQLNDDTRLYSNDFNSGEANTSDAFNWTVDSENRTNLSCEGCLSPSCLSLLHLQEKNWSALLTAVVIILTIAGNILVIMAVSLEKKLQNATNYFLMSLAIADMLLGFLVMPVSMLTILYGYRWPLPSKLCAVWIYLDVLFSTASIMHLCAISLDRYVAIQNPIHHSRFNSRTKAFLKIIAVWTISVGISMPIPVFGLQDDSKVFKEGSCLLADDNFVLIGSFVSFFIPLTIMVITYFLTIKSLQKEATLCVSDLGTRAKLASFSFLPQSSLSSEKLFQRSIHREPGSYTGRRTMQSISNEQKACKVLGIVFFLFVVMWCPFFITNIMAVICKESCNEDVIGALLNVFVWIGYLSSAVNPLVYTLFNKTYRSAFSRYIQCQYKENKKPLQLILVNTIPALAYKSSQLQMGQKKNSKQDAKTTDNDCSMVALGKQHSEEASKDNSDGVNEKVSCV
The data set is described as follows: Binding to the human 5-HT2A serotonin receptor. The settings on record: human 5-HT2A receptor, six concentrations; for Ki: read-out: 5-HT2 (pKi) (converted). The procedure: Confirmation of the binding to the serotoninergic receptors was performed by means of a biochemical test on purified membranes from recombinant human cells that stably express the specific receptors or from selected animal tissues as described in particular in Grossman C. J. et al. (1993), Br. J. Pharmacol. 109: 618-624, Bonhaus D. W. et al. (1995), Br. J. Pharmacol. 115(4): 622-628; and Saucier C. et al. (1997), J. Neurochem. 68(5): 1998-2011.
as §1
Binding to the human 5-HT2A serotonin receptor was performed via the standard method described in Bonhaus, D. W., Bach C., De Souza A., Salazar F. H., Matsuoka B. D., Zuppan P., Chan H. W., Eglen R. M. (1995): “The pharmacology and distribution of human 5-hydroxytryptamine 2B (5-HT2B) receptor gene products: comparison with 5-HT2A and 5-HT2C receptors.” Br. J. Pharmacol. 115(4): 622-628; and Saucier C., Albert P. R. (1997): “Identification of an endogenous 5-hydroxytryptamine 2A receptor in NIH-3T3 cells: agonist-induced down-regulation involves decreases in receptor RNA and number.” J. Neurochem. 68(5): 1998-2011. The test compounds were tested at six concentrations to obtain the pKi values of the individual compounds.
The values of affinity for the 5-HT4 and 5-HT2A receptor of a number of compounds of formula (I) according to the present invention are given, respectively, in Tables 2 and 3, and expressed as pKi, the value of which is proportionately greater the greater the affinity of the compound for the receptor.

T1 sequence (O70528 whole entry): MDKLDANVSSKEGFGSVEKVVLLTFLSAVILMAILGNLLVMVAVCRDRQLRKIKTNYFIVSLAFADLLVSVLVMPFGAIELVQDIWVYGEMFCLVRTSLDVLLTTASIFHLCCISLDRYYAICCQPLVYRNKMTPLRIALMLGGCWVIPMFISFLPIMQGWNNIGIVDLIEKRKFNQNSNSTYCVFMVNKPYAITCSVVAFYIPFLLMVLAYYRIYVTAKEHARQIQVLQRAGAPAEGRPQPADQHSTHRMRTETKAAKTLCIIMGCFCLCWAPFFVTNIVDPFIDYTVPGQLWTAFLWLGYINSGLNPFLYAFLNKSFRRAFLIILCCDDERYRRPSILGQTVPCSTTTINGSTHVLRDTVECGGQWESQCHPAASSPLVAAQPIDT

`Cl.Cn1cc2c(OCC3CCN(CC(=O)Nc4ccccc4)CC3)nc3ccccc3c2c1` had a melting point of 163 to 165 °C.
For `CC(C)n1cc2c(OCC3CCN(CCc4ccccc4)CC3)nc3ccccc3c2c1` [Compound 5, 4-{[1-(2-Phenyl)ethylpiperid-4-yl]methoxy}-2-isopropyl-2H-pyrrolo[3,4-c]quinoline], the Ki on 5-HT4 serotonin receptor was 138 nM.
Still for that read-out and setting: the value for `Cn1cc2c(OCC3CCN(CCc4ccccc4)CC3)nc3ccccc3c2c1` [Compound 4, 4-{[1-(2-Phenyl)ethylpiperidine-4-yl]methoxy}-2-methyl-2H-pyrrolo[3,4-c]quinoline] was 1.86 nM.
`Cl.Cn1cc2c(OCC3CCN(CCc4ccc(N)cc4)CC3)nc3ccccc3c2c1` [Compound 11a, 4-[(1-(4-Aminophenylethyl)piperid-4-yl)methyloxy]-2-methyl-2H-pyrrolo[3,4-c]quinoline hydrochloride] showed a melting point of 165 to 167 °C. The Ki at 5-HT4 serotonin receptor is 4.57 nM. Also, in data set [1], the “5-HT2 (pKi)” value is listed as 6.6.
`CC(=O)Nc1ccc(CCN2CCC(COc3nc4ccccc4c4cn(C)cc34)CC2)cc1` [Compound 13, 4-[(1-(4-Acetamidophenylethyl)piperid-4-yl)methyloxy]-2-methyl-2H-pyrrolo[3,4-c]quinoline]: the Ki is 1.86 nM on 5-HT4 serotonin receptor and over 1000 nM in data set [1].
In the case of `COCc1ccc(CCN2CCC(COc3nc4ccccc4c4cn(C)cc34)CC2)cc1` [Compound 16, 4-[(1-(4-Methoxymethylphenylethyl)piperid-4-yl)methyloxy]-2-methyl-2H-pyrrolo[3,4-c]quinoline], on 5-HT4 serotonin receptor, the Ki is 19.1 nM.
Still for that read-out and setting: the value for `Cn1cc2c(OCC3CCN(CC(=O)Nc4ccccc4)CC3)nc3ccccc3c2c1` [Compound 6, N-Phenyl-2-{4-[2-methyl-2H-pyrrolo[3,4-c]quinolin-4-yloxy-methyl]piperid-1-yl}acetamide] was 132 nM.
In turn, `Cl.Cn1cc2c(OCC3CCN(CCN4CCOCC4)CC3)nc3ccccc3c2c1` [Compound 9a, 4-{[1-(2-(4-Morpholinyl)ethyl)piperid-4-yl]methyloxy}-2-methyl-2H-pyrrolo[3,4-c]quinoline hydrochloride] displayed a melting point of 190 to 192 °C. In addition, on 5-HT4 serotonin receptor, the Ki is 2.29 nM. The Ki in data set [1] is over 10000 nM.
Consider `CCCCN1CCC(COc2nc3ccccc3c3cn(C)cc23)CC1` [Compound 3, 4-[(1-Butylpiperid-4-yl)methyloxy]-2-methyl-2H-pyrrolo[3,4-c]quinoline], for which the figures for the Ki (at 5-HT4 serotonin receptor; in data set [1]) were 14.8 nM and over 1000 nM, respectively.
Turning to `Cn1cc2c(OCC3CCN(CCc4ccc(C(=O)O)cc4)CC3)nc3ccccc3c2c1` [Compound 12a], the Ki on 5-HT4 serotonin receptor is 2.24 nM; in data set [1], over 10000 nM.
